Source: patent US20210283139A1, “BIFUNCTIONAL MOLECULES FOR TARGETING UCHL5” (AMPHISTA THERAPEUTICS LTD, priority 2018, published 2021)

Tests used:
Type in all cases: cell-based
Brd4 (L) [1] = target: T1, Brd4 (L) (Homo sapiens, UniProt O60885); test: Time-dependent BET degradation, immunoblot, HEK293 cells; set-up: dose or concentration left out as unconfirmed; settings: timecourse 0-8 h
T1 construct: endogenous in cells; host or cells: HEK293, HeLa
Protocol: (§1) Cell culture. HeLa (CCL-2) and HEK293 (CRL-1573) cells were purchased from ATCC and cultured in DMEM medium (Gibco) supplemented with 10% FBS, 100 μg/mL penicillin/streptomycin and L-glutamine. Cells were grown at 37° C. and 5% CO2, and were kept no longer than 30 passages. All cell lines were routinely tested for mycoplasma contamination using MycoAlert kit from Lonza.
(§2) Immunoblotting. proteins were separated by SDS-PAGE on NuPage 4-12% Bis-Tris gels, followed by transfer to Amersham Protran 0.45 NC nitrocellulose membrane (GE Healthcare) using wet transfer. Membranes were blocked using 5% w/v milk in Tris-buffered saline (TBS) with 0.1% Tween-20. Blots were probed (overnight at 4° C.) using anti-Brd2 (Abcam ab139690, 1:2,000 dilution), anti-Brd3 (Abcam ab50818, 1:500 dilution), and anti-Brd4 (Abcam ab128874, 1:1,000 dilution) primary antibodies, as appropriate. The next day, blots were washed with TBST and incubated (1 hr at RT) with anti-Tubulin hFAB-rhodamine (BioRad, 12004166) primary antibody, and either anti-rabbit IRDye 800CW (Licor 1:10,000 dilution) or anti-mouse IRDye 800CW (Licor 1:10,000 dilution) secondary antibody. Blots were developed using a Bio-Rad ChemiDoc MP Imaging System, and band quantification was performed using Image Studio software (LiCor). Band intensities were normalized to the tubulin loading control and reported as % of the average 0.1% DMSO vehicle intensity. Degradation data was plotted and analysed using Prism (Graphpad, version 8).
(§3) HeLa (3×10^5) and HEK293 (0.5×10^6) cells were seeded in standard 6-well plates (2 mL medium) overnight before treatment with compounds at 1 μM concentration, with a final DMSO concentration of 0.1% v/v. After incubation for the desired time (0-8 h), cells were washed with DPBS (Gibco) and lysed using 85 μL RIPA buffer (Sigma-Aldrich) supplemented with cOmplete Mini EDTA-free protease inhibitor cocktail (Roche) and benzonase. Lysates were clarified by centrifugation (20,000 g, 10 min, 4° C.) and the total protein content of the supernatant was quantified using a Bradford colorimetric assay. Samples were prepared using equal amounts of total protein and LDS sample buffer (Invitrogen).
(§4) Representative blots in FIG. 4 show depletion of Brd2, Brd3 and Brd4 protein levels following 1 μM treatment at various time points with representative compounds. Band intensities were normalized to the β-tubulin loading control and reported as % of the average 0.1% DMSO vehicle intensity, with each point representing mean±SEM of two independent experiments (n=2). Degradation data was plotted and analysed using Prism (Graphpad, version 8).
(§5) T½ (h) is the time required to deplete 50% of the protein relative to DMSO

Brd4 (S) [2] = target: T2, Brd4 (S) (Homo sapiens, UniProt O60885); test: as above; set-up: dose or concentration left out as unconfirmed; settings: timecourse 0-8 h
T2 construct: endogenous in cells; host or cells: HEK293, HeLa
Protocol: as §1, §2, §3, §4, §5

Brd2 = Brd2 (Homo sapiens, UniProt P25440); test: Time-dependent BET degradation, immunoblot, HeLa cells; set-up: endogenous in cells; host or cells: HeLa; settings: Brd2, 1 μM, timecourse 0-8 h
Sequence of Brd2 (P25440 whole entry): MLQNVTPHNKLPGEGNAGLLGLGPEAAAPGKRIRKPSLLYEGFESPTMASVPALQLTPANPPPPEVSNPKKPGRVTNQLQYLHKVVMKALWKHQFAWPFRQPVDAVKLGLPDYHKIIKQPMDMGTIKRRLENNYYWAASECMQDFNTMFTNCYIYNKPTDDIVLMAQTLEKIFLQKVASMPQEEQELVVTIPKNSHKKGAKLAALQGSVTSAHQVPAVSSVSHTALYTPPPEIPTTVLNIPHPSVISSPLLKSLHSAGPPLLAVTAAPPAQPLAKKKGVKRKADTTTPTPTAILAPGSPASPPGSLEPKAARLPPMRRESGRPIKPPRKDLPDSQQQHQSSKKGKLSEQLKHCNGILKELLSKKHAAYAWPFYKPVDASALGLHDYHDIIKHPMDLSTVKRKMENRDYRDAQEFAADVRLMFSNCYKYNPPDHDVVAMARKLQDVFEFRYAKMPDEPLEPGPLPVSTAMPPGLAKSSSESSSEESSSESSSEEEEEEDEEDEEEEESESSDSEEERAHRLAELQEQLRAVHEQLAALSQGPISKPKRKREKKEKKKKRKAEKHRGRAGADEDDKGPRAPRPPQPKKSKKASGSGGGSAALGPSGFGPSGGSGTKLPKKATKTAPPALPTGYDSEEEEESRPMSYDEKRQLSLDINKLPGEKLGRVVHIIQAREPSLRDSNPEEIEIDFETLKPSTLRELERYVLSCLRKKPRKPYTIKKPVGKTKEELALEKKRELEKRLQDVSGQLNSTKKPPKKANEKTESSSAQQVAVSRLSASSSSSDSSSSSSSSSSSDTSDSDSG
Protocol: as §1, §2, §3, §4, §5

Brd3 = Brd3 (Homo sapiens, UniProt Q15059); test: as above; set-up: endogenous in cells; host or cells: HeLa; settings: Brd3, 1 μM, timecourse 0-8 h
Sequence of Brd3 (Q15059 whole entry): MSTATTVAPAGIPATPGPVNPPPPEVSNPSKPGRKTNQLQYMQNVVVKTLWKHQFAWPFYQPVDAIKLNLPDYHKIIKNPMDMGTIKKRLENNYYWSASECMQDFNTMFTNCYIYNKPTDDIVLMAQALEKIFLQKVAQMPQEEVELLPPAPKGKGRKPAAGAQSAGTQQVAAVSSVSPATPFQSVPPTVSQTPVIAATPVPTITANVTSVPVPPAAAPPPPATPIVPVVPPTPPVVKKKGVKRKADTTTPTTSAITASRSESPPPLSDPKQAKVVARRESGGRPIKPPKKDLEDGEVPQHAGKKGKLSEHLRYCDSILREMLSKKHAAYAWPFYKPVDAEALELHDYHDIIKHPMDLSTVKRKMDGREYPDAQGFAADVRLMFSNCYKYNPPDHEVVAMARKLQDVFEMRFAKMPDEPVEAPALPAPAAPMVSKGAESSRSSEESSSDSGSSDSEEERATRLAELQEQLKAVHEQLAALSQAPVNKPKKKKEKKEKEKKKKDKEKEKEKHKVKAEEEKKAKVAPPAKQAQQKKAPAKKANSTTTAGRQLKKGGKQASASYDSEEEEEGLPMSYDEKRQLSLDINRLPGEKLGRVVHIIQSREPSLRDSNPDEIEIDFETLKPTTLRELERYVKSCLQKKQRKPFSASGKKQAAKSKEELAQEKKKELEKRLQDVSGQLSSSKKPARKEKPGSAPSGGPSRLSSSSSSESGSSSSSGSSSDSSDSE
Protocol: as §1, §2, §3, §4, §5

Brd4 (L) [3] = target: T1, Brd4 (L); test: Concentration-dependent BET degradation, immunoblot, HeLa cells; settings: 6 h treatment, 1 nM-10 μM; for Dmax: read-out: Dmax (%) maximum degradation observed
Protocol: as §1, §2
as §3, with “(5×10^5)” for “(3×10^5)”, “(1×10^6)” for “(0.5×10^6)”, “the desired concentration (1 nM-10 μM),” for “1 μM concentration,”, “6 h treatment time,” for “incubation for the desired time (0-8 h),”, “(20,000g,” for “(20,000 g,”, “(Invitrogen.” for “(Invitrogen).”
(§6) Representative blots in FIG. 3 show depletion of Brd2, Brd3 and Brd4 protein levels following treatment with increasing concentrations of representative compounds. Band intensities were normalized to the β-tubulin loading control and reported as % of the average 0.1% DMSO vehicle intensity, with each point representing mean±SEM of two independent experiments (n=2). Degradation data was plotted and analysed using Prism (Graphpad, version 8)

Brd4 (S) [4] = target: T2, Brd4 (S); test: as above; settings: 6 h treatment, 1 nM-10 μM; for Dmax: read-out: Dmax (%) maximum degradation observed
Protocol: as §1, §2
as §3, with “(5×10^5)” for “(3×10^5)”, “(1×10^6)” for “(0.5×10^6)”, “the desired concentration (1 nM-10 μM),” for “1 μM concentration,”, “6 h treatment time,” for “incubation for the desired time (0-8 h),”, “(20,000g,” for “(20,000 g,”, “(Invitrogen.” for “(Invitrogen).”
as §6

Brd4 (L) [5] = target: T1, Brd4 (L); test: Time-dependent BET degradation, immunoblot, HeLa cells; set-up: dose or concentration left out as unconfirmed; settings: timecourse 0-8 h
Protocol: as §1, §2, §3, §4, §5

Brd4 (S) [6] = target: T2, Brd4 (S); test: as above; set-up: dose or concentration left out as unconfirmed; settings: timecourse 0-8 h
Protocol: as §1, §2, §3, §4, §5

Brd4 = target: T3, Brd4 (Homo sapiens, UniProt O60885); test: Mechanistic evaluation of Brd4 degradation in HEK293 cells (degrasyn or I-BET726 pre-treatment); settings: 6 h
T3 construct: endogenous in cells; host or cells: HEK293, HAP1, MV4-11
Protocol: as §2
HEK293 (1×10^6) cells were seeded in standard 6-well plates (2 mL medium) overnight before pre-treatment with inhibitors (5 μM degrasyn or 1 μM I-BET726). After a 0.5 h pre-incubation time, cells were subsequently treated with vehicle, 0.1 μM MZ1 or 0.1 μM 05IB9, yielding a final overall DMSO concentration of 0.2% v/v. After 6 h incubation, cells were washed with DPBS (Gibco) and lysed using 85 μL RIPA buffer (Sigma-Aldrich) supplemented with cOmplete Mini EDTA-free protease inhibitor cocktail (Roche) and benzonase. Lysates were clarified by centrifugation (20,000 g, 10 min, 4° C.) and the total protein content of the supernatant was quantified using a Bradford colorimetric assay. Samples were prepared using equal amounts of total protein and LDS sample buffer (Invitrogen).

Dmax (Brd4 (L) [1]) [%]	Dmax (Brd4 (S) [2]) [%]	Dmax at 1 µM (Brd2) [%]	Dmax at 1 µM (Brd3) [%]	DC50 (Brd4 (L) [3]) [nM]	Dmax (Brd4 (L) [3]) [%]	DC50 (Brd4 (S) [4]) [nM]	Dmax (Brd4 (S) [4]) [%]	Dmax (Brd4 (L) [5]) [%]	Dmax (Brd4 (S) [6]) [%]	Brd4 protein levels (Brd4; HEK293, 0.1 μM)	SMILES	Brd4 degradation in the presence of degrasyn or I-BET726 (Brd4; HEK293, 0.1 μM compound, 0.5 h pre-treatment with 5 μM degrasyn or 1 μM I-BET726)
100	97	79	90	51 to 500	≥ 71	≤ 50	≥ 71	100	100		CCCC(NC(=O)/C(C#N)=C/c1cccc(Br)n1)c1ccc(OCCOCCOCCOCCOCCOCCOCCNC(=O)c2ccc(-c3ccc4c(c3)[C@H](Nc3ccc(Cl)cc3)C[C@H](C)N4C(C)=O)cc2)cc1 (some centres unmarked) [Example 05IB6]	
96	100	54	100	51 to 500	≥ 71	≤ 50	≥ 71	79	100		CCCC(NC(=O)/C(C#N)=C/c1cccc(Br)n1)c1ccc(OCC=NOCC(=O)NCCOCCOCCOCCOCCOCCNC(=O)c2ccc3c(c2)[C@H](Nc2ccc(Cl)cc2)C[C@H](C)N3C(C)=O)cc1 (some centres unmarked) [Example 05IB3]	
96	96	76	80	≤ 50	≥ 71	≤ 50	≥ 71	100	100	depletion	CCCC(NC(=O)/C(C#N)=C/c1nccs1)c1ccc(OCCOCCOCCOCCOCCOCCOCCNC(=O)c2ccc(-c3ccc4c(c3)[C@H](Nc3ccc(Cl)cc3)C[C@H](C)N4C(C)=O)cc2)cc1 (some centres unmarked) [Example 05IB9]	completely blocked in the presence of either degrasyn or I-BET726
